Measured values: patent publication US20090062295A1, “Pharmaceutical Products” (MITSUBISHI PHARMA CORPORATION, priority 2005, published 2009)

Test: Influence of pH on content of the compound in solution after storage (Example 1, HPLC)
Assay type: physicochemical
Details: 1 mg/mL in Britton-Robinson buffer at pH 2, 3, 4, 5 and 6, 1 month storage at 25 or 40° C.
Protocol: A solution was prepared so as to contain the compound at 1 mg/mL of a solvent, and divided as aliquots in clear test tubes and the tubes were tightly sealed. The Britton-Robinson buffer was used as the solvent to prepare sample solutions at pH 2, 3, 4, 5 and 6.
After 1 month storage of these sample solutions under each temperature condition of 25 or 40° C., the contents of the compound were determined by HPLC under the following measurement conditions.
Sample solution: 1 mL of specimen/25 mL of mobile phase
Temperature: Room temperature Mobile phase: 1 M Et3N (adjusted at pH 8 with AcOH):CH3CN:H2O=50:250:700 Flow rate: […]
Loaded volume: 20 μL Quantification method: Corrected area percentage

Q: For `Cl.O.O.O.O=C1CCC(c2ccc(Nc3ccncc3)cc2)=NN1` [the compound, 6-[4-(4-pyridylamino)phenyl]-4,5-dihydro-3(2H)-pyridazinone hydrochloride trihydrate], which “remaining ratio of the compound” value is on record?
A: Its value is “highest at pH 5 to 6”.
